Measurements taken from US20200270588A1, “GLUCOSYL TRANSFERASE POLYPEPTIDES AND METHODS OF USE” (Syngenta Participations AG, priority 2017, published 2020).

Assays:
Type in all cases: biochemical
[1] = target: T1, SEQ ID NO 23, mutant of Zea mays bx9 glucosyl transferase (Zea mays, UniProt B4G072, A334K/F21Y/L194C/M279F/S117V); test: UDP-Glo glucosyl transferase assay, purified enzyme; conditions: lower block, concentration printed only in upper block: V 0.300, VII 0.210; IV, VIII, XI, XXI, XX, XVIII, XVI, XV, XIV 0.200; others 1.000 mM
T1 construct: His tag (C); made in house
Experimental: (§1) Glucosyl transferase activity is assayed via measurement of acceptor substrate-dependent production of UDP from ultrapure UDP-glucose using the Promega UDP-Glo™ method and according to the manufacturer's instructions. Assays are run in 96 well microtiter plates.
(§2) Enzyme, typically at a stock concentration of ˜2 mg/ml is diluted to an appropriate concentration in 50 mM K^+ Hepes buffer at pH7.5 containing 0.5 mg/mL bovine serum albumin (BSA) and 5 ul aliquots of this diluted enzyme added to each well of a Perkin Elmer white ½ area 96 well plate. […] Assays are run for an appropriate time (usually 10 to 60 min) so that the amount of UDP formed lies within the most nearly linear part of the UDP standard curve and are stopped with the addition and mixing of 25 ul UDP-Glo™ detection reagent (prepared as described below). Plates are then incubated at room temperature for 60 minutes and then read in a luminescence plate reader (Perkin Elmer Envision 2130 Multilabel Reader). A UDP standard curve is run alongside each set of assays and reagent blank control assays run with DMSO in place of test herbicide. Typically, 300 pmol of UDP corresponds to a Relative Luminescence Unit (RLU) reading of about 1.5E7 and the response curve between 0 and 600 pmol is fitted to a polynomial function (see for example FIG. 2).
(§3) The UDP-Glo™ reagents are made up and used according to the manufacturer's instructions. Thus, Nucleotide Detection Buffer and ATP are combined to make nucleotide detection reagent (NDR) dispensed into aliquots and frozen to be freshly thawed before use. […]
(§4) Table 13 summarizes the results obtained from assays, run as described in Example 1, using a variety of alcohol and aminal PSII herbicides as substrates of the Zea mays bx9 w/t (i.e. C-terminally his tagged SEQ ID no 1) and various mutants of the same, selected from SEQ ID NO: 16-30). All of these proteins were C-terminally his-tagged, expressed and purified as described in Example 1. Assays were run and analyzed as described in example 1. It is seen that various of the mutations herein and combinations thereof led to significant improvements (over the w/t bx9 protein) in catalytic activity versus various of the herbicides and that these improvements are often of sufficient magnitude to be useful for conferring improved herbicide tolerance upon crop. This is especially the case given that even the unmutated w/t bx9 enzyme which has only modest glucosyl transferase activity (for example against compounds V and VI) was nevertheless adequately active to confer significant herbicide tolerance in the glass house (as shown in example 9) even without mutational improvement. It is also seen that particular mutations can lead to very much improved activity in respect of some chemistries but not to others but that, overall, there is at least one variant within the scope of the current invention that provides significant and useful improvement in tolerance to each of the chemistries tested.

[2] = target: T2, SEQ ID NO 19, mutant of Zea mays bx9 glucosyl transferase (Zea mays, UniProt B4G072, A281K/A334K/L194V/M279F/S117V); test: as above; conditions: herbicide mM: V 0.300, VI 0.250, VII 0.210; IV, VIII, XI, XXI, XX, XVIII, XVI, XV, XIV 0.200; others 1.000
T2 construct: His tag (C); made in house
Experimental: as §1, §2, §3, §4

[3] = target: T3, SEQ ID NO 18, mutant of Zea mays bx9 glucosyl transferase (Zea mays, UniProt B4G072, A281K/A334K/F21Y/M279F/S117V); test: as above; conditions: herbicide mM: V 0.300, VI 0.250, VII 0.210; IV, VIII, XI, XXI, XX, XVIII, XVI, XV, XIV 0.200; others 1.000
T3 construct: His tag (C); made in house
Experimental: as §1, §2, §3, §4

[4] = target: T4, SEQ ID NO 20, mutant of Zea mays bx9 glucosyl transferase (Zea mays, UniProt B4G072, A281K/A334K/F21Y/L194V/M279F/S117V); conditions: lower block, concentration printed only in upper block: V 0.300, VII 0.210; IV, VIII, XI, XXI, XX, XVIII, XVI, XV, XIV 0.200; others 1.000 mM
T4 construct: His tag (C); made in house
Experimental: as §1
as §2, with “herbicide.” for “herbicide. Typically, 300 pmol of UDP corresponds to a Relative Luminescence Unit (RLU) reading of about 1.5E7 and the response curve between 0 and 600 pmol is fitted to a polynomial function (see for example FIG. 2).”
(§5) The UDP-Glo™ reagents are made up and used according to the manufacturer's instructions. Thus, Nucleotide Detection Buffer and ATP are combined to make nucleotide detection reagent (NDR) dispensed into aliquots and frozen to be freshly thawed before use.
(§6) Km and kcat values in respect of UDP-glucose are derived by carrying out experiments to measure initial rates over a suitable range of concentrations of UDP glucose out at a fixed near saturating concentration of acceptor substrate. Best fit values of kcat, Km and kcat/Km are obtained by direct fitting of the data to the Michaelis-Menten equation using Graphpad Prism™ software.
All of these proteins were C-terminally his-tagged, expressed and purified as described in Example 1. Assays were run and analyzed as described in example 1.

[5] = target: T5, SEQ ID NO 21, mutant of Zea mays bx9 glucosyl transferase (Zea mays, UniProt B4G072, A334K/F21Y/L194V/M279F/S117V); test: UDP-Glo glucosyl transferase assay, purified enzyme; conditions: lower block, concentration printed only in upper block: V 0.300, VII 0.210; IV, VIII, XI, XXI, XX, XVIII, XVI, XV, XIV 0.200; others 1.000 mM
T5 construct: His tag (C); made in house
Experimental: as §1, §2, §5, §6
(§7) Variants of C-terminally his tagged SEQ ID No:1 (w/t bx9 from Zea mays), exemplified as SEQ ID 16-30, were cloned, purified and assayed as described in Example 1. FIG. 4 depicts the data from some experiments to determine the kinetic parameters of some of these variants in respect of herbicide VI and table 12 summarizes the estimates of kinetic parameters obtained from further such experiments in respect of a range of herbicides.
as §4

[6] = target: T6, SEQ ID NO 17, zmBX9 S117V, M279F, A334K mutant (Zea mays, UniProt B4G072, A334K/M279F/S117V); test: as above; conditions: herbicide mM: V 0.300, VI 0.250, VII 0.210; IV, VIII, XI, XXI, XX, XVIII, XVI, XV, XIV 0.200; others 1.000
T6 construct: polypeptides were the C-terminally his-tagged; His tag (C); made in house
Experimental: as §1, §2, §5, §6, §7, §4

[7] = target: T7, SEQ ID NO 22, mutant of Zea mays bx9 glucosyl transferase (Zea mays, UniProt B4G072, A334K/F21Y/M279F/S117V/T220P); test: as above; conditions: lower block, concentration printed only in upper block: V 0.300, VII 0.210; IV, VIII, XI, XXI, XX, XVIII, XVI, XV, XIV 0.200; others 1.000 mM
T7 construct: His tag (C); made in house
Experimental: as §1, §2, §5, §6, §7, §4

[8] = target: T8, Zea mays bx9 glucosyl transferase (C-terminally his tagged SEQ ID NO: 1) (Zea mays, UniProt B4G072); test: as above; conditions: for Activity: herbicide mM: V 0.300, VI 0.250, VII 0.210, IV, VIII, XI, XXI, XX, XVIII, XVI, XV, XIV 0.200, others 1.000; for kcat: 0.5 mM UDP-glucose, 25 C, pH 7.5, DMSO reagent blank as control
T8 construct: His tag (C); made in house; host or cells: E. coli BL21 (DE3), pET24a
T8 sequence (B4G072 1-462): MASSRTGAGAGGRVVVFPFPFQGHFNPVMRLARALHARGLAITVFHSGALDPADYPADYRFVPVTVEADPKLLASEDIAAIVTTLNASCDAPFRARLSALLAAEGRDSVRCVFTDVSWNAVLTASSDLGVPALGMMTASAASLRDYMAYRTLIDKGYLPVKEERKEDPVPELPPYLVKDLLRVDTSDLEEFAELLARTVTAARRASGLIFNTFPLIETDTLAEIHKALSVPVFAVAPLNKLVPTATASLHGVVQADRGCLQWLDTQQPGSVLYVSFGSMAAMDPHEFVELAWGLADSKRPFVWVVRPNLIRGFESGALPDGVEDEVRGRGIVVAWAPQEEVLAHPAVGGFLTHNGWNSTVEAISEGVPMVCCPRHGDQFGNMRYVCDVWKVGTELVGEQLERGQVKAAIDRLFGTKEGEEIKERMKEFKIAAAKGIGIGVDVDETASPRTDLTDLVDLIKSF
Experimental: as §1, §2, §5, §6

Structure (SMILES) | Activity [1] [pmol/sec/pmol enzyme] | Activity [2] [pmol/sec/pmol enzyme] | Activity [3] [pmol/sec/pmol enzyme] | Activity [4] [pmol/sec/pmol enzyme] | Activity [5] [pmol/sec/pmol enzyme] | Activity [6] [pmol/sec/pmol enzyme] | Activity [7] [pmol/sec/pmol enzyme] | Activity [8] [pmol/sec/pmol enzyme] | kcat [8] [s⁻¹]
CC1C(O)N(c2cc(C(F)(F)F)c(Cl)cn2)C(=O)N1C (stereo not shown) [XIX] | 0.207 | 0.363 | 0.467 | 0.414 | 0.234 | 0.157 | 0.315 | −0.001 | 
Cc1cnc(N2C(=O)N(C)C(C)C2O)cc1C(F)(F)F (stereo not shown) [XX] | 0.249 | 0.662 | 0.751 | 0.698 | 0.338 | 0.244 | 0.563 | −0.001 | 
C[C@H]1C(=O)N(c2noc(C(C)(C)C)c2C#N)C(O)[C@@H]1C (stereo partly shown) [XXIII] | 0.021 | 0.072 | 0.089 | 0.119 | 0.034 | 0.014 | 0.067 | −0.003 | 
C[C@@H]1C(O)N(c2cc(C(C)(C)C)on2)C(=O)[C@@H]1C (stereo partly shown) [VIII] | 0.017 | 0.077 | 0.124 | 0.145 | 0.016 | 0.008 | 0.061 | −0.002 | 
CN1CC(O)N(c2cc(C(C)(C)C)on2)C1=O (stereo not shown) [XXII] | 0.020 | 0.080 | 0.186 | 0.120 | 0.015 | 0.023 | 0.101 | 0.000 | 
CN1CC(O)N(c2nnc(C(C)(C)C)s2)C1=O (stereo not shown) [IX] | 0.013 | 0.070 | 0.115 | 0.068 | 0.012 | 0.035 | 0.071 | 0.017 | 0.036
CC1C(=O)N(c2cc(C(F)(F)F)n(C)n2)C(O)[C@@H]1C (stereo partly shown) [XVII] | 0.096 | 0.331 | 0.237 | 0.402 | 0.195 | 0.083 | 0.134 | −0.001 | 
CN1CC(O)N(c2cc(C(F)(F)F)ncn2)C1=O (stereo not shown) [XXV] | 0.449 | 0.581 | 0.553 | 0.758 | 0.170 | 0.106 | 0.458 | 0.000 | 
CON1C(=O)N(c2cc(C(F)(F)F)c(Cl)cn2)C(O)C1C (stereo not shown) [XXI] | 1.746 | 1.534 | 1.524 | 1.457 | 1.827 | 0.919 | 1.714 | 0.000 | 0.0001
C[C@H]1C(O)N(c2cc(C(F)(F)F)ccn2)C(=O)N1C (stereo partly shown) [XXIV] | 0.816 | 1.358 | 0.982 | 1.462 | 1.154 | 0.528 | 0.908 | 0.001 | 
